Earlier results, collected in patent US8540972B2, “Sunscreen product comprising hydroxyapatite as physical filter” (Kalichem Italia S.R.L., priority 2009, dated 2013).

Tested on: HeLa cells

fate of HeLa cells after UV irradiation in the presence of the substance: die
Substance: titanium dioxide [TiO2]
